Results: ChEMBL document CHEMBL1649345, “Strychnan and secoangustilobine A type alkaloids from Alstonia spatulata. Revision of the C-20 configuration of scholaricine” (J Nat Prod, 2010)
Values after ≈ are worked out from the molar mass of the structure shown.

Tests used:
Assay type in all cases: functional, cell-based
[1] = Cytotoxicity against human vincristine-sensitive KB/S cells
[2] = Cytotoxicity against human vincristine-resistant KB/VJ300 cells
[3] = Cytotoxicity against human vincristine-resistant KB/VJ300 cells in presence of vincristine

SMILES | IC50 [1] | IC50 [2] | IC50 [3]
COC(=O)C1=C2Nc3c(O)cccc3[C@@]23CCN2C[C@@H](C(C)=O)[C@@H]1C[C@H]23 [ALSTOLUCINE D] | > 25 µg/mL | > 25 µg/mL | 10.3 µg/mL
COC(=O)C1=C2Nc3ccccc3[C@@]23CC[N+]2([O-])C[C@@H](C(C)=O)[C@@H]1C[C@@H]32 (some centres not stated) [ALSTOLUCINE C] | > 25 µg/mL | > 25 µg/mL | > 25 µg/mL
CCOC(=O)O[C@H](C)[C@H]1CN2CC[C@]34C(=C(C(=O)OC)[C@H]1C[C@H]23)Nc1ccccc14 [ALSTOLUCINE A] | > 25 µg/mL | > 25 µg/mL | 0.59 µg/mL
COC(=O)C1=C2Nc3ccccc3[C@@]23CCN2C[C@H]([C@H](C)O)[C@@H]1C[C@H]23 | > 25 µg/mL | > 25 µg/mL | 8.35 µg/mL
COC(=O)C1=C2Nc3c(OC)cccc3[C@@]23CCN2C[C@H]([C@@H](C)O)[C@@H]1C[C@H]23 | > 25 µg/mL | > 25 µg/mL | 10.6 µg/mL
C=C[C@@]12CNCC[C@@H]1[C@](C(=O)OC)(c1cc3ccccc3[nH]1)CO2 | > 25 µg/mL | > 25 µg/mL | > 25 µg/mL
COC(=O)C1=C2Nc3ccccc3[C@@]23CCN2C[C@@H](C(C)=O)[C@@H]1C[C@H]23 [ALSTOLUCINE B] | > 25 µg/mL | > 25 µg/mL | 0.64 µg/mL
COC(=O)C1=C2Nc3ccccc3[C@@]23CCN2C[C@H](C(C)=O)[C@@H]1C[C@H]23 [ALSTOLUCINE F] | > 25 µg/mL | > 25 µg/mL | 2.61 µg/mL
C/C=C1/CN2CC[C@]34C(=C(C(=O)O)[C@H]1C[C@H]23)Nc1ccccc14 [VINERVINE] | > 25 µg/mL | > 25 µg/mL | 12.1 µg/mL
C=C[C@@]12CN(C(=O)OCC)CC[C@@H]1[C@](C(=O)OC)(c1cc3ccccc3[nH]1)CO2 [ALSTOLOBINE A] | > 25 µg/mL | > 25 µg/mL | 3.51 µg/mL
COC(=O)C1=C2Nc3ccccc3[C@@]23CCN2C[C@H]([C@@H](C)O)[C@@H]1C[C@H]23 | > 25 µg/mL | > 25 µg/mL | 5.12 µg/mL
C/C=C1/CN2CC[C@]34C(=C(C(=O)OC)[C@H]1C[C@H]23)Nc1ccccc14 [AKUAMMICINE] | > 25 µg/mL | > 25 µg/mL | 12.3 µg/mL
COC(=O)C1=C2Nc3c(O)cccc3[C@@]23CCN2C[C@@H]([C@H](C)O)[C@@H]1C[C@H]23 [SCHOLARICINE] | > 25 µg/mL | 13.3 µg/mL (≈ 37.5 µM) | 1.15 µg/mL
COC(=O)C1=C2Nc3c(O)cccc3[C@@]23CCN2C[C@H](C(C)=O)[C@@H]1C[C@H]23 [ALSTOLUCINE E] | > 25 µg/mL | > 25 µg/mL | 19.2 µg/mL
